Results from patent US5990208A, “Stabilization of polycarbonate/ABS blends with mixtures of hindered amines and UV absorbers” (Ciba Specialty Chemicals Corporation, priority 1997, dated 1999).

How the values were obtained:
[1] = pKa of hindered amines by non-aqueous titration; format: physicochemical; conditions: extrapolated from calibration plot
From the text: The pKa measurements of the hindered amines are obtained by non-aqueous titration. Organic reference materials with known pKa values in water, are titrated in non-aqueous media (1:1 acetonitrile:chloroform and 0.1 N perchloric acid/dioxane titrant system) to generate a non-aqueous calibration plot of half-neutralization potential (HNP) versus pKa. The "unknown" hindered amines are then titrated to determine the HNP, and extrapolated to obtain the corresponding pKa from this calibration plot.

[2] = Weight loss of additive by thermogravimetric analysis (TGA); format: physicochemical; conditions: 5° C./min, nitrogen; for Temperature at which stated weight loss of additive occurs, 5%: 5% weight loss; for Temperature at which stated weight loss of additive occurs, 10%: 10% weight loss
Protocol: Weight loss data for the hindered amines are obtained by thermogravimetric analysis on a DuPont model 2100 analyzer, operated at a scan rate of 5° C./min in a nitrogen atmosphere using 4-5 mg sample in aluminum pans.

[3] = Discoloration (delta E), Dry XAW, two-pass compounded clear PC/ABS (Example 6); conditions: in words
Protocol: Accelerated weathering is performed using an Atlas Ci65A Weather-o-meter ("XAW"), operated in either "Dry XAW" mode (ASTM G26-90 method C) or interior auto ("IAXAW") (black panel temperature 89° C., light/dark cycle 3.8 hr/1.0 hr; irradiance 0.55 watt/m^2, inner filter-quartz, outer filter--high borate.
Yellowness Index and delta E color are performed as per ASTM D-1925, using a Chroma-Sensor CS-5 Colorimeter, operated at 10 degree, small area view, specular included.
This polymer blend is prepared by two-step compounding. The hindered amine is extrusion compounded with ABS on a 18 mm twin screw extruder with set temperatures (throat to die, ° C.) of 170/200/215/225/225/225. The ABS is optionally redried then extrusion compounded with an equal weight of polycarbonate to achieve a 50/50 wt/wt ratio blend. TINUVIN® 234 is added during the second extrusion compounding step although the UV absorber can also be added during the first compounding step.
Thereafter, chip impact bars are prepared and subjected to dry XAW accelerated weathering. The samples are removed at selected intervals for color measurement and then for destructive chip impact testing.

Compound	Approximate pKa [1]	Temperature at which stated weight loss of additive occurs, 5% [2]	Temperature at which stated weight loss of additive occurs, 10% [2]	color stability [3]	Temperature at which stated weight loss of additive occurs, 2% ([2]; 2% weight loss (printed in 5% column))	Temperature at which stated weight loss of additive occurs, 1% ([2]; 1% weight loss (printed in 5% column))
CC1(C)CN(CCN(c2nc(N(CCN3CC(C)(C)NC(C)(C)C3=O)C3CCCCC3)nc(N(CCN3CC(C)(C)NC(C)(C)C3=O)C3CCCCC3)n2)C2CCCCC2)C(=O)C(C)(C)N1 [GOODRITE ® 3150, 1,3,5-tris{N-cyclohexyl-N-[2-(3,3,5,5-tetramethylpiperazin-2-on-1-yl)ethyl]amino}-s-triazine]	~6.7	345 °C	362 °C	reasonably equivalent color stability	–	–
CN1C(C)(C)CN(CCN(c2nc(N(CCN3CC(C)(C)N(C)C(C)(C)C3=O)C3CCCCC3)nc(N(CCN3CC(C)(C)N(C)C(C)(C)C3=O)C3CCCCC3)n2)C2CCCCC2)C(=O)C1(C)C [GOODRITE ® 3159, 1,3,5-tris{N-cyclohexyl-N-[2-(3,3,4,5,5-pentaamethylpiperazin-2-on-1-yl)ethyl]amino}-s-triazine]	~6.1	–	372 °C	–	319 °C	–
CCCCCCCCON1C(C)(C)CC(OC(=O)CCCCCCCCC(=O)OC2CC(C)(C)N(OCCCCCCCC)C(C)(C)C2)CC1(C)C [TINUVIN ® 123, bis(1-octyloxy-2,2,6,6-tetramethylpiperidin-4-yl) sebacate]	~4.4	222 °C	236 °C	–	–	–
CC1(C)CC(OC(=O)CCCCCCCCC(=O)OC2CC(C)(C)NC(C)(C)C2)CC(C)(C)N1 [TINUVIN ® 770, bis(2,2,6,6-tetramethylpiperidin-4-yl) sebacate]	~9.0	–	260 °C	–	–	200 °C
CC(C)(c1ccccc1)c1cc(-n2nc3ccccc3n2)c(O)c(C(C)(C)c2ccccc2)c1 [TINUVIN® 234, 2-(2-hydroxy-3,5-di-α-cumylphenyl)-2H-benzotriazole]	–	–	–	reasonably equivalent color stability	–	–
